According to patent US20230322846A9, “NEUROACTIVE STEROIDS AND THEIR METHODS OF USE” (SAGE THERAPEUTICS, INC., priority 2018, published 2023):
pIC50: −log10 of the molar value.

target: [35S]-TBPS binding, rat brain cortical membranes; experiment: Steroid inhibition of [35S]-TBPS binding; conditions: 3 nM [35S]-TBPS, in the presence of 5 mM GABA
Outline: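 In the presence of […], compounds (DMSO 0.5% final) competed with 3 nM [35S]-TBPS for Sprague-Dawley rat cortical membranes, pH 7.4 phosphate buffer, 90 min, room temperature. Filtration and scintillation counting; specific binding defined by […]; IC50 and maximal inhibition fitted per experiment, averaged as mean ± SEM.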

Q: With `COC[C@@]1(O)CC[C@H]2[C@H](CC[C@@H]3[C@@H]2CC[C@]2(C)[C@@H]([C@H](C)NC(=O)c4cc(C)nn4C)CC[C@@H]32)C1` [Example 119] as the compound, how does the pIC50 read?
A: 5.00 to 6.00

Q: How did the pIC50 turn out when `C[C@H](NC(=O)c1ccc(C#N)cn1)[C@H]1CC[C@H]2[C@@H]3CC[C@@H]4C[C@](C)(O)CC[C@@H]4[C@H]3CC[C@]12C` [Example 121] was run?
A: 5.00 to 6.00

Q: How did the pIC50 turn out when `C[C@H](NC(=O)c1ccc(F)cn1)[C@H]1CC[C@H]2[C@@H]3CC[C@@H]4C[C@](C)(O)CC[C@@H]4[C@H]3CC[C@]12C` [Example 124] was run?
A: 6.00 to 7.00

Q: `COC[C@@]1(O)CC[C@H]2[C@H](CC[C@@H]3[C@@H]2CC[C@]2(C)[C@@H]([C@@H](C)NC(=O)c4ccc(F)cn4)CC[C@@H]32)C1` [Example 125] was tested. Which pIC50 did it give?
A: 6.00 to 7.00

Q: With `COC[C@@]1(O)CC[C@H]2[C@H](CC[C@@H]3[C@@H]2CC[C@]2(C)[C@@H]([C@H](C)NC(=O)c4ccc(F)cn4)CC[C@@H]32)C1` [Example 126] as the compound, how does the pIC50 read?
A: 5.00 to 6.00

Q: `C[C@@H](NC(=O)c1ccc(F)cn1)[C@H]1CC[C@H]2[C@@H]3CC[C@@H]4C[C@](C)(O)CC[C@@H]4[C@H]3CC[C@]12C` [Example 127] was tested. Which pIC50 did it give?
A: 6.00 to 7.00

Q: With `COC[C@@]1(O)CC[C@H]2[C@H](CC[C@@H]3[C@@H]2CC[C@]2(C)[C@@H]([C@@H](C)NC(=O)c4ccc(OC(F)(F)F)cn4)CC[C@@H]32)C1` [Example 128] as the compound, how does the pIC50 read?
A: 6.00 to 7.00

Q: How did the pIC50 turn out when `COC[C@@]1(O)CC[C@H]2[C@H](CC[C@@H]3[C@@H]2CC[C@]2(C)[C@@H]([C@H](C)NC(=O)c4ccc(OC(F)(F)F)cn4)CC[C@@H]32)C1` [Example 129] was run?
A: 6.00 to 7.00

Q: How did the pIC50 turn out when `C[C@@H](NC(=O)c1ccc(C#N)cc1F)[C@H]1CC[C@H]2[C@@H]3CC[C@@H]4C[C@](C)(O)CC[C@@H]4[C@H]3CC[C@]12C` [Example 130] was run?
A: > 7.00

Q: With `COC[C@@]1(O)CC[C@H]2[C@H](CC[C@@H]3[C@@H]2CC[C@]2(C)[C@@H]([C@@H](C)NC(=O)c4ccc(C#N)cc4F)CC[C@@H]32)C1` [Example 131] as the compound, how does the pIC50 read?
A: > 7.00

Q: `CCOC[C@@]1(O)CC[C@H]2[C@H](CC[C@@H]3[C@@H]2CC[C@]2(C)[C@@H]([C@@H](C)NC(=O)c4ccc(C#N)cc4F)CC[C@@H]32)C1` [Example 133] was tested. Which pIC50 did it give?
A: > 7.00

Q: `COC[C@@]1(O)CC[C@H]2[C@H](CC[C@@H]3[C@@H]2CC[C@]2(C)[C@@H]([C@@H](C)NC(=O)c4ccc(F)cc4F)CC[C@@H]32)C1` [Example 134] was tested. Which pIC50 did it give?
A: > 7.00

Q: With `COC[C@@]1(O)CC[C@H]2[C@H](CC[C@@H]3[C@@H]2CC[C@]2(C)[C@@H]([C@H](C)NC(=O)c4ccc(F)cc4F)CC[C@@H]32)C1` [Example 135] as the compound, how does the pIC50 read?
A: 5.00 to 6.00

Q: `COC[C@@]1(O)CC[C@H]2[C@H](CC[C@@H]3[C@@H]2CC[C@]2(C)[C@@H]([C@@H](C)n4cc(C#N)cn4)CC[C@@H]32)C1` [Example 150, 1-((R)-1-((3R, 5R, 8R, 9R, 10S, 135, 145, 17S)-3-hydroxy-3-(methoxymethyl)-13-methylhexadecahydro-1H-cyclopenta[a]phenanthren-17-yl)ethyl)-1H-pyrazole-4-carbonitrile] was tested. Which pIC50 did it give?
A: > 7.00

Q: How did the pIC50 turn out when `COC[C@@]1(O)CC[C@H]2[C@H](CC[C@@H]3[C@@H]2CC[C@]2(C)[C@@H]([C@H](C)n4cc(C#N)cn4)CC[C@@H]32)C1` [Example 151, 1-((S)-1-((3R,5R,8R,9R,10S,13S,14S,17S)-3-hydroxy-3-(methoxymethyl)-13-methylhexadecahydro-1H-cyclopenta[a]phenanthren-17-yl)ethyl)-1H-pyrazole-4-carbonitrile] was run?
A: 5.00 to 6.00

Q: `COC[C@@]1(O)CC[C@H]2[C@H](CC[C@@H]3[C@@H]2CC[C@]2(C)[C@@H]([C@@H](C)n4ncc(C#N)c4N)CC[C@@H]32)C1` [Example 152, 5-amino-1-((R)-1-((3R,5R,8R,9R,10S,13S,14S,17S)-3-hydroxy-3-(methoxymethyl)-13-methylhexadecahydro-1H-cyclopenta[a]phenanthren-17-yl)ethyl)-1H-pyrazole-4-carbonitrile] was tested. Which pIC50 did it give?
A: 5.00 to 6.00

Q: `COC[C@@]1(O)CC[C@H]2[C@H](CC[C@@H]3[C@@H]2CC[C@]2(C)[C@@H]([C@H](C)n4ncc(C#N)c4N)CC[C@@H]32)C1` [Example 153, 5-amino-1-((S)-1-((3R,5R,8R,9R,10S,13S,14S,17S)-3-hydroxy-3-(methoxymethyl)-13-methylhexadecahydro-1H-cyclopenta[a]phenanthren-17-yl)ethyl)-1H-pyrazole-4-carbonitrile] was tested. Which pIC50 did it give?
A: 5.00 to 6.00

Q: How did the pIC50 turn out when `C[C@H]([C@H]1CC[C@H]2[C@@H]3CC[C@@H]4C[C@](C)(O)CC[C@@H]4[C@H]3CC[C@]12C)n1ncc(C#N)c1N` [Example 154, 5-amino-1-((R)-1-((3R,5R,8R,9R,10S,13S,14S,17S)-3-hydroxy-3,13-dimethylhexadecahydro-1H-cyclopenta[a]phenanthren-17-yl)ethyl)-1H-pyrazole-4-carbonitrile] was run?
A: 5.00 to 6.00

Q: `C[C@@H]([C@H]1CC[C@H]2[C@@H]3CC[C@@H]4C[C@](C)(O)CC[C@@H]4[C@H]3CC[C@]12C)n1ncc(C#N)c1N` [Example 155, 5-amino-1-((S)-1-((3R,5R,8R,9R,10S,13S,14S,17S)-3-hydroxy-3,13-dimethylhexadecahydro-1H-cyclopenta[a]phenanthren-17-yl)ethyl)-1H-pyrazole-4-carbonitrile] was tested. Which pIC50 did it give?
A: 5.00 to 6.00

Q: `C[C@H]([C@H]1CC[C@H]2[C@@H]3CC[C@@H]4C[C@](C)(O)CC[C@@H]4[C@H]3CC[C@]12C)n1cc(C#N)cn1` [Example 156, 1-((R)-1-((3R,5R,8R,9R,10S,13S,14S,17S)-3-hydroxy-3,13-dimethylhexadecahydro-1H-cyclopenta[a]phenanthren-17-yl)ethyl)-1H-pyrazole-4-carbonitrile] was tested. Which pIC50 did it give?
A: > 7.00

Q: `C[C@@H]([C@H]1CC[C@H]2[C@@H]3CC[C@@H]4C[C@](C)(O)CC[C@@H]4[C@H]3CC[C@]12C)n1cc(C#N)cn1` [Example 157, 1-((S)-1-((3R,5R,8R,9R,10S,13S,14S,17S)-3-hydroxy-3,13-dimethylhexadecahydro-1H-cyclopenta[a]phenanthren-17-yl)ethyl)-1H-pyrazole-4-carbonitrile] was tested. Which pIC50 did it give?
A: 5.00 to 6.00

Q: `C[C@H]([C@H]1CC[C@H]2[C@@H]3CC[C@@H]4C[C@](C)(O)CC[C@@H]4[C@H]3CC[C@]12C)n1nccn1` [Example 158, (3R,5R,8R,9R,10S,13S,14S,17S)-17-((R)-1-(2H-1,2,3-triazol-2-yl)ethyl)-3,13-dimethylhexadecahydro-1H-cyclopenta[a]phenanthren-3-ol] was tested. Which pIC50 did it give?
A: 6.00 to 7.00

Q: How did the pIC50 turn out when `C[C@H]([C@H]1CC[C@H]2[C@@H]3CC[C@@H]4C[C@](C)(O)CC[C@@H]4[C@H]3CC[C@]12C)n1ccnn1` [Example 159, (3R,5R,8R,9R,10S,13S,14S,17S)-17-((R)-1-(1H-1,2,3-triazol-1-yl)ethyl)-3,13-dimethylhexadecahydro-1H-cyclopenta[a]phenanthren-3-ol] was run?
A: ≤ 5.00
